The text below walks through data of patent publication US20230348465A1, “IBOGAINE ANALOGS AS THERAPEUTICS FOR NEUROLOGICAL AND PSYCHIATRIC DISORDERS” (The Trustees of Columbia University in the City of New York, priority 2020, published 2023).

Where two headings read alike, the source gives them in different places. Where only a bound is given, the exact number is not on record here.

One data set concerns the target T1, hSERT (Homo sapiens, UniProt P31645).
T1 construct: expressed in transfected cells; host or cells: HEK cells, stably transfected (hSERT-HEK), kept under G418
Kind of data set: hSERT screening assay: inhibition of uptake of the fluorescent substrate APP+ in stably transfected hSERT-HEK cells. Type of data set: cell-based. The conditions noted are these: for IC50: hSERT-HEK cells, APP+ 1.1 µM, mean ± SEM, n ≥ 4, read-out: SERT IC50; for Ki: Cheng-Prusoff from IC50, Km (APP+) = 1.6 µM, read-out: SERT Ki. As to the method: (§1) Stably transfected hSERT-HEK and rVMAT2-HEK cellular cultures were maintained in Dulbecco’s Minimal Essential Medium (DMEM) with GlutaMAX (Gibco) with the following additions: 10% (v/v) Fetal Bovine Serum (FBS, Atlanta Biologicals), 100 U/mL Penicillin, and 10 µg/mL Streptomycin (Gibco). With regards to the former cell lineage, an additional ingredient, 500 µg/mLGeneticin (G418) (Sigma) was included to preserve the respective transgene.
(§2) For both hSERT and rVMAT2 screening experiments, respective singly transfected cells were seeded at a density of 0.09 × 10^6 cells/well in poly-D-Lysine (Sigma) coated white solid-bottom 96-well plates. Growth was permitted for approximately 44 hours in said aqueous media and at an incubation environment of 37° C. and 5% Carbon Dioxide. At the beginning of the experiment, the cellular growth solution was aspirated, and individual cells were rinsed with 150 µL of 1× Dulbecco’s Phosphate Buffered Saline (PBS; HyClone). 63 µL of Experimental Media (consisting of the following contents: DMEM without phenol red but with 4.5 g/L of D-Glucose (Gibco), 1 % (v/v) FBS (Atlanta Biologicals), 100 U/mL Penicillin, and 10 µg/mLStreptomycin (Gibco)) with 2 × tiered concentrations of inhibitor (or DMSO, the vehicle of these experiments) were added to the respective wells. […] After a required incubation period of 30 minutes for proper fluorescent probe uptake, the contents of each well were aspirated and consequently, rinsed twice with 120 µL of PBS. A final solution of 120 µL of PBS is finally added to all corresponding wells for cell maintenance before undergoing fluorescence uptake reading by a BioTek H1MF plate reader.
(§3) Numerical analysis of the collected experimental data preceded as accordingly. Respective inhibitor values were first subtracted from vehicular values to quantify the respective fluorescence uptake. This metric was then analyzed using the dose-response-inhibitor nonlinear curve fitting model ([inhibitor] vs response (three parameters)) as supplied by GraphPad Prism 6 software. For each inhibitor, the model supplied a respective IC50 ± SEM value (Table 1).

Another data set has as its target T2, rVMAT2 (Rattus norvegicus, UniProt Q01827).
T2 construct: expressed in transfected cells; host or cells: HEK cells, stably transfected (rVMAT2-HEK)
Kind of data set: rVMAT2 screening assay: inhibition of uptake of the fluorescent substrate FFN206 in stably transfected rVMAT2-HEK cells. The class given is cell-based. The conditions noted are these: for Ki: read-out: VMAT2 Ki. The method, then: as §1, §2, §3

Data set [1] can be described thus: Metabolic stability and noribogaine formation in human liver microsomes (HLM), LC-MS/MS. The conditions noted are these: for percent remaining of parent compound / CLh,int / % Remaining at 60 min (+ NADPH) / % Remaining at 60 min (- NADPH): HLM; for percent remaining of parent compound: 10 µM, + NADPH; for CLh,int: 45 mg microsomal protein per gm liver; for % Remaining at 60 min (+ NADPH): summary line; for % Remaining at 60 min (- NADPH): without NADPH; for %Remaining at 60 min (Buffer): buffer control, HLM column; for half-life at 10 µM: human, microsomes, pH 7.4. The method, then:
(§4) Metabolism Studies. Metabolic stability of test compounds was evaluated in liver microsomes from rat (RLM) and human (HLM). This was accomplished by incubating test compounds with microsomes and monitoring disappearance of parent compound as well as metabolite formation over time using LC-MS/MS in Multiple Reaction Monitoring mode (MRM).
(§5) Stock solutions of test compounds were prepared in DMSO at a concentration of 10 mM.
(§6) From the above mix, 70 µL was added to individual wells of 96 well reaction plates and preincubated at 37° C. for 5 min. […] Reactions without NADPH and buffer controls (minus NADPH) at 0 min and 60 min were also incubated to rule out non-NADPH metabolism or chemical instability in the incubation buffer. All reactions were terminated using 100 µL of ice-cold acetonitrile containing internal standard (glipizide) at 0, 5, 15, 30 and 60 min.
(§7) Samples were monitored for parent compounds disappearance and formation of metabolite in MRM mode using LC-MS/MS instrument (API-4000 with Waters UPLC).
(§8) The percent remaining of test compounds and positive control in each sample was determined by considering peak area ratio in the 0 minute sample as 100%. The Half-life of compounds in microsomes is calculated by formula: […]
(§9) In vitro intrinsic clearance (CL´int) (units in mL/min/kg) was calculated using the formula: […]
(§10) * Indicates liver weight (gm) which varies species wise. For human, monkey, dog, rat and mouse the liver weight are 20 gm, 32 gm, 32 gm, 40 gm and 90 gm respectively.

A short description of data set [2]: Metabolic stability and noribogaine formation in rat liver microsomes (RLM), LC-MS/MS. The conditions noted are these: for percent remaining of parent compound: 10 µM, + NADPH; for CLh,int: 45 mg microsomal protein per gm liver; for % Remaining at 60 min (- NADPH): without NADPH; for %Remaining at 60 min (Buffer): buffer control, RLM column; for half-life at 10 µM: male, rat, microsomes, pH 7.4. The method, then:
as §4, §5, §6, §7, §8, §9, §10

[3] abbreviates: rVMAT2-HEK cells, FFN206 0.75 µM, mean ± SEM, n ≥ 4, read-out: VMAT2 IC50.
The mark [4] stands for this setting: ratio of potency to noribogaine.

T2 sequence (Q01827 whole entry): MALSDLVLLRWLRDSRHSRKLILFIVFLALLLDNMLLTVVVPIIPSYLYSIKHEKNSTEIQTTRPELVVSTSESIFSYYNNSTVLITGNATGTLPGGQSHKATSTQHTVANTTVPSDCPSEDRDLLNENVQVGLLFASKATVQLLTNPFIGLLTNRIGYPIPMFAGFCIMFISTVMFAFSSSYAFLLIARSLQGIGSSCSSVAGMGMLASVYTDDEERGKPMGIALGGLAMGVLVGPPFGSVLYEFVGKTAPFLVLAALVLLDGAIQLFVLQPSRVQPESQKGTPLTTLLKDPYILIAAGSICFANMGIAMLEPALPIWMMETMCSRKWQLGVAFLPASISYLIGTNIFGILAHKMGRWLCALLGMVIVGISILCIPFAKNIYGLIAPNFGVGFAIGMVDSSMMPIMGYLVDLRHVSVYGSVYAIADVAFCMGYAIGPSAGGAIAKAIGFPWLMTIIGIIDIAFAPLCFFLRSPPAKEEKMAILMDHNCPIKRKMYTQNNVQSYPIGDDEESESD
T1 sequence (P31645 whole entry): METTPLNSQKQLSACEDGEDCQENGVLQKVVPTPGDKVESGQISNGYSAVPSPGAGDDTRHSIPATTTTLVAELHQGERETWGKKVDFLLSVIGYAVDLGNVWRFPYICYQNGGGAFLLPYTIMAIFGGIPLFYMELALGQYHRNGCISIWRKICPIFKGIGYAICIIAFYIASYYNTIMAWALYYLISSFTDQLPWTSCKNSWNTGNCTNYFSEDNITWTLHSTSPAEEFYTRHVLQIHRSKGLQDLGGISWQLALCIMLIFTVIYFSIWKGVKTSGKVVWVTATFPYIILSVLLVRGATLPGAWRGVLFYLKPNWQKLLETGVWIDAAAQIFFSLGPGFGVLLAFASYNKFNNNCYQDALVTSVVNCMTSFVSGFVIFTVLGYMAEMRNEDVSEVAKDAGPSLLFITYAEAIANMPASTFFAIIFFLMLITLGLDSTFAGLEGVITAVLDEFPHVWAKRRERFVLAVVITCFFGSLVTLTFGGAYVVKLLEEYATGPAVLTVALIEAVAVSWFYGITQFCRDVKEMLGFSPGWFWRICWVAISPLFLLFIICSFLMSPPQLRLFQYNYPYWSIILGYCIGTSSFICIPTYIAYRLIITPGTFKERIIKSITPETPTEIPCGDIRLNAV

Broadly, the IC50 is the concentration that gives 50% inhibition. Regarding `CCC1CC2CC3c4[nH]c5ccc(C(N)=O)cc5c4CCN(C2)C13` (centres unmarked) [Compound 2, Ibogamine-10-carboxamide], the IC50 stood at 2500 ± 290 nM on hSERT and 3000 ± 570 nM on rVMAT2 (setting [3]).

As for `CCC1CC2CC3c4[nH]c5ccc(C#N)cc5c4CCN(C2)C13` (centres unmarked) [Compound 3, Ibogamine-10-carbonitrile], the IC50 turned out to be 26 ± 3.8 nM at hSERT and 3300 ± 430 nM on rVMAT2 (setting [3]).

`CCC1CC2CC3c4c(c5cc(OC)ccc5n4C)CCN(C2)C13` (centres unmarked) [Compound 7, N-methyl-ibogaine]: the concentration for half-maximal inhibition (IC50) on hSERT is 1500 ± 130 nM; at rVMAT2 (setting [3]), 740 ± 110 nM.

On to `CCC1CC2CC3c4[nH]c5ccc(OC)cc5c4CCN(C2)C13` (centres unmarked) [Ibogaine], for which the “percent remaining of parent compound” value in data set [1] (0 min) is reported as 100%; in data set [1] (5 min), 104%; in data set [1] (15 min), 98%; in data set [1] (30 min) it was 94%; in data set [1] (60 min), 81%; in data set [2] (RLM, 0 min) it was 100%. For the same molecule, the “percent remaining of parent compound” value in data set [2] (RLM, 5 min) stood at 86%; in data set [2] (RLM, 15 min) it was 56%; in data set [2] (RLM, 30 min), 23%; in data set [2] (RLM, 60 min), 1%. The results for the “CLh,int” value in data set [1] and in data set [2] (RLM) were 7 mL/min/kg and 306 mL/min/kg, respectively. For the same molecule, in data set [1], the “% Remaining at 60 min (+ NADPH)” value came out at 81%. Besides, the “% Remaining at 60 min (- NADPH)” value in data set [1] is 98%; in data set [2] (RLM), 104%. In addition, the “%Remaining at 60 min (Buffer)” value in data set [1] and in data set [2] was 103% throughout. For the same molecule, the half-life at 10 µM in data set [1] is greater than 60 min; in data set [2], 8 min. Besides, the IC50 at rVMAT2 is roughly 4000 nM.

As to `CCC1CC2CC3c4[nH]c5ccc(OC)c(Cl)c5c4CCN(C2)C13` (centres unmarked) [Compound 19, 9-Chloro-ibogaine], the IC50 on hSERT stood at 1200 ± 120 nM; on rVMAT2 (setting [3]), 18000 ± 5900 nM.

As to `CCC1CC2CC3c4c(c5cc(O)ccc5n4CC)CCN(C2)C13` (centres unmarked) [Compound 13, N-ethyl-noribogaine], the half-maximal inhibitory concentration (IC50) came out at 1900 ± 200 nM at hSERT and 70 ± 10 nM at rVMAT2 (setting [3]).

Take `CCc1ccc2c(c1)c1c(n2C)C2CC3CC(CC)C2N(CC1)C3` (centres unmarked) [Compound 11, N-methyl-10-ethyl-ibogamine]: the IC50 at hSERT was 910 ± 120 nM; on rVMAT2 (setting [3]), 750 ± 70 nM.

For the molecule `CCOc1ccc2c(c1)c1c(n2C)C2CC3CC(CC)C2N(CC1)C3` (centres unmarked) [Compound 14, N-methyl-10-ethoxy-ibogamine], on hSERT, the IC50 was found to be 2800 ± 380 nM.

For the molecule `CCC1CC2CC3c4[nH]c5ccc(OC)c(Br)c5c4CCN(C2)C13` (centres unmarked) [Compound 17, 9-Bromo-ibogaine], the Ki at hSERT is 400 ± 90 nM; at rVMAT2, 3000 ± 530 nM. The IC50 came to 670 ± 160 nM on hSERT and 4900 ± 870 nM on rVMAT2 (setting [3]). In addition, the “times less potent than noribogaine at SERT” value at hSERT (setting [4]) is “approximately 2.4”. For the same molecule, the “times weaker than noribogaine at VMAT2” value at rVMAT2 (setting [4]) was roughly 8.6.

On to `CC[C@H]1C[C@H]2C[C@H]3c4[nH]c5ccc(O)cc5c4CCN(C2)[C@@H]13` [Noribogaine, reference compound], for which, on hSERT, the “SERT inhibition, result in words” value was “potent SERT inhibitor”. Moreover, the Ki at rVMAT2 (Cheng-Prusoff from IC50, Km (FFN206) = […]) came to 350 ± 40 nM. Further, on rVMAT2 (setting [3]), the IC50 amounted to 570 ± 80 nM.

Consider `CCC1CC2CC3c4c(c5ccccc5n4C)CCN(C2)C13` (centres unmarked) [Compound 6, N-methyl-ibogamine], for which the IC50 at hSERT came out at 80 ± 9 nM; on rVMAT2 (setting [3]), 1500 ± 160 nM.

In the case of `CCCOc1ccc2[nH]c3c(c2c1)CCN1CC2CC(CC)C1C3C2` (centres unmarked) [Compound 4, 10-Propoxy-ibogamine], the IC50 on hSERT stood at 3000 ± 500 nM.

Consider `CCOc1ccc2[nH]c3c(c2c1)CCN1CC2CC(CC)C1C3C2` (centres unmarked) [10-Ethoxy-ibogamine], for which the “percent remaining of parent compound” value in data set [1] (0 min) was 100%; in data set [1] (5 min) it was 103%; in data set [1] (15 min) it was 98%; in data set [1] (30 min), 85%; in data set [1] (60 min), 66%; in data set [2] (RLM, 0 min) it was 100%. Further, the “percent remaining of parent compound” value in data set [2] (RLM, 5 min) stood at 77%; in data set [2] (RLM, 15 min) it was 42%; in data set [2] (RLM, 30 min), 3%; in data set [2] (RLM, 60 min) it was 0%. Besides, the figures for the “CLh,int” value in data set [1] and in data set [2] (RLM) were 13 mL/min/kg and 445 mL/min/kg, respectively. Moreover, the “% Remaining at 60 min (+ NADPH)” value in data set [1] was found to be 66%; in data set [2] (RLM, summary line), 0%. In addition, the entries for the “% Remaining at 60 min (- NADPH)” value in data set [1] and in data set [2] (RLM) were 106% and 88%, respectively. Besides, the “%Remaining at 60 min (Buffer)” value in data set [1] and in data set [2] was 88% each time. In addition, the results for the half-life at 10 µM in data set [1] and in data set [2] were greater than 60 min and 6 min, respectively. Besides, the “SERT inhibition, result in words” value on hSERT is recorded as “only a weak inhibitor of SERT”. Also, the values for the IC50 on hSERT and on rVMAT2 (setting [3]) were 9000 ± 1100 nM and 80 ± 20 nM, respectively. For the same molecule, the “VMAT2 inhibition, result in words” value at rVMAT2 is reported as “potent VMAT2 inhibitor”; on rVMAT2 (listed as 10-Ethoxy-ibogaine), “nearly an order of magnitude more potent”. Besides, the Ki at rVMAT2 worked out at 50 ± 10 nM.

`CCC1CC2CC3c4c(c5cc(O)ccc5n4C)CCN(C2)C13` (centres unmarked) [Compound 8, N-methyl-noribogaine]: the Ki on hSERT is 35 ± 6.7 nM; at rVMAT2, 100 ± 20 nM. Further, the IC50 at hSERT stood at 59 ± 11 nM; at rVMAT2 (setting [3]) it was 170 ± 30 nM. Also, the “times more potent than noribogaine at SERT” value at hSERT (setting [4]) is recorded as “approximately 4.7”. Besides, at rVMAT2 (setting [4]), the “times more potent than noribogaine at VMAT2” value is recorded as “approximately 3.4”.

Turning to `CCC1CC2CC3c4c(c5cc(C#N)ccc5n4C)CCN(C2)C13` (centres unmarked) [Compound 10, N-methyl-ibogamine-10-carbonitrile], the IC50 is 5.1 ± 0.83 nM on hSERT and 440 ± 50 nM at rVMAT2 (setting [3]).

Take `CCC1CC2CC3c4[nH]c5ccccc5c4CCN(C2)C13` (centres unmarked) [Compound 5, Ibogamine]: the Ki at hSERT was determined as 200 ± 20 nM; on rVMAT2 it was 1800 ± 340 nM. The figures for the half-inhibitory concentration (IC50) at hSERT and at rVMAT2 (setting [3]) were 330 ± 40 nM and 3000 ± 550 nM, respectively. Besides, the “times weaker than noribogaine at VMAT2” value at rVMAT2 (setting [4]) is on record as “approximately 5.3”.

`CCC1CC2CC3c4[nH]c5cc(Br)c(OC)cc5c4CCN(C2)C13` (centres unmarked) [Compound 18, 11-Bromo-ibogaine]: the IC50 on hSERT stood at 200 ± 30 nM; on rVMAT2 (setting [3]), 1000 ± 150 nM.
